{"source": "patent US20240408167A1", "about": "“COMPOSITION FOR TREATING OCULAR DISEASES CONTAINING PEPTIDE” (Encuragen Inc., priority 2023, published 2024)", "key": {"[1]": {"experiment": "pI value of the API", "type": "physicochemical"}, "[2]": {"experiment": "Osmotic pressure of trehalose-only formulations", "type": "physicochemical", "details": "trehalose-only formulation", "experimental": "The osmotic pressure of the trehalose-only formulations according to the (PEG)-BHD1028 content (see Table 5) and the osmotic pressure of the trehalose-mannitol composite formulations according to the (PEG)-BHD1028 content (see Table 6) were measured, and reflecting the experimental results, the osmolarity including the 0.5% (PEG)-BHD1028 concentration was adjusted to about 300 mOsm/kg."}, "[3]": {"system": "inflammatory cells infiltrated into the stromal layer", "experiment": "Immune cell counts by H&E staining, EDE rabbit model", "type": "in vivo", "details": "10 days after the treatment", "excerpt": "(§1) The extracted eyes were washed with phosphate-buffered saline (PBS), fixed in the modified Davidson's solution, and embedded in paraffin (Histocore Arcadia, Leica, Wetzlar, Germany). Afterwards, paraffin blocks were sliced into sections of a ˜6 μm thickness, mounted on microscope slides (HistoCore AUTOCUT, Leica, Germany), air dried, and stained with hematoxylin-eosin. The stained tissue slides were imaged, and data were obtained using an optical microscope/digital slide scanner (Axio Scan.Z1, Zeiss, Oberkochen, Germany). Image measurement was performed using ZEN (Zeiss, Germany) and ImageJ (NIH, Bethesda, […], USA) software programs.\nThe DED inflammatory pathway also includes the infiltration of differentiated (antigen-specific) T cells into the cornea, conjunctiva, and lacrimal gland. To evaluate the anti-inflammatory effect of (PEG)-BHD1028 in the EDE rabbit model, the number of inflammatory cells infiltrated into the stromal layer was measured by H&E staining 10 days after the treatment."}, "[4]": {"system": "corneal epithelium", "experiment": "Corneal epithelial thickness after H&E staining, EDE rabbit model", "type": "in vivo", "details": "all treatment groups (0.1%, 0.2%, 0.4%), vs vehicle, p<0.001", "excerpt": "as §1\nThe pathophysiology of dry eye syndrome includes pathological changes in the epithelium such as erosion, cicatrix, scar, corneal neovascularization and, in severe conditions, corneal perforation. The protective effect of (PEG)-BHD1028 on the epithelium was evaluated by measuring the corneal thickness using ZEN (Zeiss, Germany) microscopy software program after H&E tissue staining."}, "[5]": {"system": "mouse experimental dry eye (EDE) model", "experiment": "Corneal fluorescein staining (CFS) score, EDE mouse model", "type": "in vivo", "experimental": "(§2) To confirm the pharmacological effect and appropriate dosage, a pilot study was first conducted with the mice. In addition, a rabbit DED (Dry Eye Disease) model with a large exposed facial area was evaluated in comparison with a mouse model. In the mouse experimental dry eye (EDE) model, scopolamine hydrobromide (Sigma-Aldrich. St. Louis, MO, USA) was subcutaneously injected three times a day (9 a.m., 1:30 p.m., 6 p.m.) in a room exposed to ventilation with an ambient humidity of less than 40% at 25±2° C. to induce DED.\n(§3) The mice were randomly divided into five groups: (1) EDE (experimental dry eye) control mice without eye drops administration, (2) EDE mice treated with a vehicle (phosphate-buffered saline), (3) EDE mice treated with 0.001% (PEG)-BHD1028 (4) EDE mice treated with 0.01% (PEG)-BHD1028, and (5) EDE mice treated with 0.1% (PEG)-BHD1028. All the treatment groups received 2 μL of eye drops three times a day.\nThe subjects were evaluated by corneal staining, and the abnormal findings of the eyelids, cornea, and conjunctiva were recorded. After dropping 1 μL of the 1% fluorescent dye solution and washing with saline solution, and the cornea was observed under a slit-lamp microscope and scored to evaluate the degree of epithelial damage (degree of fluorescent staining).\nThe clinical severity of the cornea was evaluated using a corneal fluorescein staining (CFS) method, which is widely used to detect foreign substances and corneal surface damage. A higher CFS score indicates more severe corneal epitheliopathy."}, "[6]": {"system": "mouse experimental dry eye (EDE) model", "experiment": "Tear film break-up time (TBUT), EDE mouse model", "type": "in vivo", "experimental": "as §2, §3\nTBUT is the time elapsed between the last blink and the first appearance of fluorescein decomposition, and it is an indicator of tear film stability. TBUT was evaluated by administering 1 μL of 1% fluorescein sodium dye to the lower conjunctival sac of the mice and visualizing the tear film using cobalt blue light of a slit-lamp biomicroscope. The measurement was repeated three times to obtain an average value.\nTear film instability is an important pathological characteristic of DED and the most common indicator of tear quality. […] The improvement in the 0.01% (PEG)-BHD1028 group was greater than that in the 0.001% (PEG)-BHD1028 group on Day 10 (p<0.05), but there was no difference between 0.01% and 0.1%."}}, "note": "Values joined by “and” are separate entries in the source; they are usually repeats but may differ in a detail not shown here. Equal entries are not always repeated."}
{"substance": "NH2-Tyr-Tyr-Phe-Ala-Tyr-His-Pro-Asn-Ile-Pro-Gly-Leu-Tyr-Tyr-Phe-COOH (H-YYFAYHPNIPGLYYF-OH; also: PEGylated, site not given here (mPEG), acetate salt) [(PEG)-BHD1028]", "values": [{"measurement": "pI value", "setting": "[1]", "result": "approximately 6.6"}, {"measurement": "osmotic pressure, Mean", "setting": "[2]; 0.5%", "result": 300.33, "unit": "mOsm/kg"}, {"measurement": "osmotic pressure, single measurements #1-#3", "setting": "[2]; 0.5%", "result": "299 mOsm/kg and 301 mOsm/kg"}, {"measurement": "osmotic pressure, Mean", "setting": "[2]; 1.5%", "result": 308.67, "unit": "mOsm/kg"}, {"measurement": "osmotic pressure, single measurements #1-#3", "setting": "[2]; 1.5%", "result": "310 mOsm/kg and 309 mOsm/kg and 307 mOsm/kg"}, {"measurement": "osmotic pressure, Mean", "setting": "[2]; 4.5%", "result": 335.00, "unit": "mOsm/kg"}, {"measurement": "osmotic pressure, single measurements #1-#3", "setting": "[2]; 4.5%", "result": 335, "unit": "mOsm/kg"}, {"measurement": "immune cell counts in the corneal stroma", "setting": "[3]; 0.1%", "result": "399.39±22.22"}, {"measurement": "number of immune cells infiltrated into the conjunctiva", "setting": "[3]; 0.1%", "result": "624.94±29.29"}, {"measurement": "immune cell counts in the corneal stroma", "setting": "[3]; 0.2%", "result": "349.89±17.18"}, {"measurement": "number of immune cells infiltrated into the conjunctiva", "setting": "[3]; 0.2%", "result": "472.41±39.06"}, {"measurement": "immune cell counts in the corneal stroma", "setting": "[3]; 0.4%", "result": "305.06±13.88"}, {"measurement": "number of immune cells infiltrated into the conjunctiva", "setting": "[3]; 0.4%", "result": "427.22±29.29"}, {"measurement": "mean corneal epithelial thickness", "setting": "[4]", "result": "significantly greater than that of the vehicle treated animals"}, {"measurement": "CFS", "setting": "[5]; 0.001%, Day 5", "result": "9.875 ± 1.808", "unit": "score"}, {"measurement": "CFS", "setting": "[5]; 0.001%, Day 10", "result": "11.000 ± 1.927", "unit": "score"}, {"measurement": "CFS", "setting": "[5]; 0.01%, Day 5", "result": "8.625 ± 1.598", "unit": "score"}, {"measurement": "CFS", "setting": "[5]; 0.01%, Day 10", "result": "7.625 ± 1.598", "unit": "score"}, {"measurement": "CFS", "setting": "[5]; 0.1%, Day 5", "result": "8.125 ± 1.553", "unit": "score"}, {"measurement": "CFS", "setting": "[5]; 0.1%, Day 10", "result": "8.375 ± 1.302", "unit": "score"}, {"measurement": "TBUT", "setting": "[6]; 0.001%, Day 5", "result": "1.333 ± 0.081", "unit": "s"}, {"measurement": "TBUT", "setting": "[6]; 0.001%, Day 10", "result": "1.359 ± 0.140", "unit": "s"}, {"measurement": "TBUT", "setting": "[6]; 0.01%, Day 5", "result": "1.406 ± 0.082", "unit": "s"}, {"measurement": "TBUT", "setting": "[6]; 0.01%, Day 10", "result": "1.530 ± 0.137", "unit": "s"}, {"measurement": "TBUT", "setting": "[6]; 0.1%, Day 5", "result": "1.408 ± 0.095", "unit": "s"}, {"measurement": "TBUT", "setting": "[6]; 0.1%, Day 10", "result": "1.483 ± 0.113", "unit": "s"}]}
